# Assay results: patent publication US12528814B2, “Bifunctional degraders of interleukin-1 receptor-associated kinases and therapeutic use thereof” (NURIX THERAPEUTICS, INC., priority 2020, dated 2026)
# pIC50: −log10 of the molar value. Read-outs that look alike come from different tables or passages of the source.
# Assays:
# IRAK4 [1] = molecular target: T1, IRAK4 (Homo sapiens (Human), UniProt Q9NWZ3); experiment: IRAK4 Biochemical HTRF Kinase Assay; conditions: read-out: IRAK4 HTRF biochemical: IC50
# Method in brief: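 HTRF KinEASE STK S1 format measuring IRAK4 phosphorylation of biotinylated peptide; reaction solution of 5 μM STK-S1, 10 mM ATP, 10 mM MgCl2 added (stock, to 10 μl final), 90 min at ambient temperature, detection 60 min. IC50 from sixteen-point duplicate curves by non-linear regression.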
# Target sequence in this assay (Q9NWZ3 whole entry, species assumed): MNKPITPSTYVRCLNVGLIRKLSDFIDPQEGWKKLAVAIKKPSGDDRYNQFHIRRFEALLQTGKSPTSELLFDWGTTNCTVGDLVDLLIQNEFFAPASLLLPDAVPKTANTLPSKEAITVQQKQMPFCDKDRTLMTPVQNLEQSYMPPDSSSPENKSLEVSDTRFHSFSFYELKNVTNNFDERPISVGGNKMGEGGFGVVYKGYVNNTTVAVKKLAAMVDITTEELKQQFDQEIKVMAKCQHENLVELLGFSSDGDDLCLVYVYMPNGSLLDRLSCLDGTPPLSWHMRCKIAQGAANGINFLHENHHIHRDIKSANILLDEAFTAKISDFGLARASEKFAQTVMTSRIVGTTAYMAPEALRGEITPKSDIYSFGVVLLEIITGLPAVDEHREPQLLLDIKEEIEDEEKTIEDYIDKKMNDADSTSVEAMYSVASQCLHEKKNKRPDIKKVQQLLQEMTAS
# IRAK4 [2] = molecular target: T1, IRAK4; experiment: IRAK4 Degradation HiBiT Assay; conditions: HiBiT-tagged Jurkat cells, 4 hrs; for Dmax: Jurkat; for DC50: read-out: Cellular IRAK4 HiBiT: DC50
# Target sequence in this assay (Q9NWZ3 whole entry): as the sequence (Q9NWZ3 whole entry, species assumed) above
# [3] = read-out: Cellular IRAK4 HiBiT: Dmax, Table 5, multiple runs
# [4] = read-out: Cellular IRAK4 HiBiT: Dmax, Table 4
Compound,"pIC50 (IRAK4 [1]; Table 5, multiple runs)",Dmax (IRAK4 [2]; [3]) [%],"DC50 (IRAK4 [2]; Table 5, multiple runs) [nM]",pIC50 (IRAK4 [1]; Table 4),Dmax (IRAK4 [2]; [4]) [%],DC50 (IRAK4 [2]; Table 4) [nM]
"CNc1cc(-c2ccc3cc(C#N)cnn23)ncc1-c1nnc(N2CCN(C(=O)C3CC4(CCN(c5ccc6c(c5)C(=O)N(C5CCC(=O)NC5=O)C6=O)C4)C3)CC2)s1 (stereo not drawn) [Example 175, 7-(5-(5-(4-(6-(2-(2,6-dioxopiperidin-3-yl)-1,3-dioxoisoindolin-5-yl)-6-azaspiro[3.4]octane-2-carbonyl)piperazin-1-yl)-1,3,4-thiadiazol-2-yl)-4-(methylamino)pyridin-2-yl)pyrrolo[1,2-b]pyridazine-3-carbonitrile]",9.30,91,19.1,,,
"CNc1cc(-c2ccc3cc(C#N)cnn23)ncc1-c1nnc([C@H]2CC[C@H](NC(=O)CCCCCOc3cc(-c4scnc4C)ccc3CNC(=O)[C@@H]3C[C@@H](O)CN3C(=O)[C@@H](NC(=O)C3(F)CC3)C(C)(C)C)CC2)s1 [Example 60, (2S,4R)—N-(2-((6-(((1r,4r)-4-(5-(6-(3-cyanopyrrolo[1,2-b]pyridazin-7-yl)-4-(methylamino)pyridin-3-yl)-1,3,4-thiadiazol-2-yl)cyclohexyl)amino)-6-oxohexyl)oxy)-4-(4-methylthiazol-5-yl)benzyl)-1-((S)-2-(1-fluorocyclopropane-1-carboxamido)-3,3-dimethylbutanoyl)-4-hydroxypyrrolidine-2-carboxamide]",8.46,112,111,8.45,105,159
"CC(C)Nc1cc(-c2ccc3cc(C#N)cnn23)ncc1-c1nnc(N2CCN(Cc3ccc4c(c3)C(=O)N(C3CCC(=O)NC3=O)C4=O)CC2)s1 (stereo not drawn) [Example 20, 7-(5-(5-(4-((2-(2,6-dioxopiperidin-3-yl)-1,3-dioxoisoindolin-5-yl)methyl)piperazin-1-yl)-1,3,4-thiadiazol-2-yl)-4-(isopropylamino)pyridin-2-yl)pyrrolo[1,2-b]pyridazine-3-carbonitrile]",8.70,29,660,8.70,29,654
"CNc1cc(-c2ccc3cc(C#N)cnn23)ncc1-c1nnc(C23CCC(NC(=O)CCCC(=O)N[C@H](C(=O)N4C[C@H](O)C[C@H]4C(=O)NCc4ccc(-c5scnc5C)cc4)C(C)(C)C)(CC2)CC3)s1 [Example 141, N1-(4-(5-(6-(3-cyanopyrrolo[1,2-b]pyridazin-7-yl)-4-(methylamino)pyridin-3-yl)-1,3,4-thiadiazol-2-yl)bicyclo[2.2.2]octan-1-yl)-N5-((S)-1-((2S,4R)-4-hydroxy-2-((4-(4-methylthiazol-5-yl)benzyl)carbamoyl)pyrrolidin-1-yl)-3,3-dimethyl-1-oxobutan-2-yl)glutaramide]",8.85,133,1910,,,
"CNc1cc(-c2ccc3cc(C#N)cnn23)ncc1-c1nnc([C@H]2CC[C@H](N(C)CC3CCN(c4ccc5c(=O)n(C6CCC(=O)NC6=O)ccc5c4)CC3)CC2)s1 (stereo partly drawn) [Example 170, 7-(5-(5-((1r,4r)-4-(((1-(2-(2,6-dioxopiperidin-3-yl)-1-oxo-1,2-dihydroisoquinolin-6-yl)piperidin-4-yl)methyl)(methyl)amino)cyclohexyl)-1,3,4-thiadiazol-2-yl)-4-(methylamino)pyridin-2-yl)pyrrolo[1,2-b]pyridazine-3-carbonitrile]",9.30,103,29.3,,,
"CNc1cc(-c2ccc3cc(C#N)cnn23)ncc1-c1nnc([C@H]2CC[C@H](NC(=O)CN3CCC4(CC3)CN(c3ccc5c(c3)C(=O)N(C3CCC(=O)NC3=O)C5=O)C4)CC2)s1 (stereo partly drawn) [Example 64, N-((1r,4r)-4-(5-(6-(3-cyanopyrrolo[1,2-b]pyridazin-7-yl)-4-(methylamino)pyridin-3-yl)-1,3,4-thiadiazol-2-yl)cyclohexyl)-2-(2-(2-(2,6-dioxopiperidin-3-yl)-1,3-dioxoisoindolin-5-yl)-2,7-diazaspiro[3.5]nonan-7-yl)acetamide]",9.10,112,14.9,9.05,110,17.3
"Cc1ncsc1-c1ccc([C@H](C)NC(=O)[C@@H]2C[C@@H](O)CN2C(=O)[C@@H](NC(=O)CCCCCCCCCC(=O)N2CCN(c3nnc(-c4cnc(-c5ccc6cc(C#N)cnn56)cc4NC(C)C)s3)CC2)C(C)(C)C)cc1 [Example 38, (2S,4R)-1-((S)-2-(11-(4-(5-(6-(3-cyanopyrrolo[1,2-b]pyridazin-7-yl)-4-(isopropylamino)pyridin-3-yl)-1,3,4-thiadiazol-2-yl)piperazin-1-yl)-11-oxoundecanamido)-3,3-dimethylbutanoyl)-4-hydroxy-N—((S)-1-(4-(4-methylthiazol-5-yl)phenyl)ethyl)pyrrolidine-2-carboxamide]",7.98,34,128,7.98,34,128
"CNc1cc(-c2ccc3cc(C#N)cnn23)ncc1-c1nnc(N2CCN(C(=O)C[C@H](NC(=O)[C@@H]3C[C@@H](O)CN3C(=O)[C@@H](NC(=O)C3(F)CC3)C(C)(C)C)c3ccc(-c4scnc4C)cc3)CC2)s1 [Example 160, (2S,4R)—N—((S)-3-(4-(5-(6-(3-cyanopyrrolo[1,2-b]pyridazin-7-yl)-4-(methylamino)pyridin-3-yl)-1,3,4-thiadiazol-2-yl)piperazin-1-yl)-1-(4-(4-methylthiazol-5-yl)phenyl)-3-oxopropyl)-1-((S)-2-(1-fluorocyclopropane-1-carboxamido)-3,3-dimethylbutanoyl)-4-hydroxypyrrolidine-2-carboxamide]",8.96,97,85.8,,,
"CNc1cc(-c2ccc3cc(C#N)cnn23)ncc1-c1nnc([C@H]2CC[C@@H](NC(=O)CCC(=O)N[C@H](C(=O)N3C[C@H](O)C[C@H]3C(=O)N[C@@H](C)c3ccc(-c4scnc4C)cc3)C(C)(C)C)CC2)s1 [Example 121, N1-((1s,4R)-4-(5-(6-(3-cyanopyrrolo[1,2-b]pyridazin-7-yl)-4-(methylamino)pyridin-3-yl)-1,3,4-thiadiazol-2-yl)cyclohexyl)-N4—((S)-1-((2S,4R)-4-hydroxy-2-(((S)-1-(4-(4-methylthiazol-5-yl)phenyl)ethyl)carbamoyl)pyrrolidin-1-yl)-3,3-dimethyl-1-oxobutan-2-yl)succinamide]",8.92,95,1080,,,
"CNc1cc(-c2ccc3cc(C#N)cnn23)ncc1-c1nnc(N2CC3CCC(C2)N3C2CCN(C(=O)C[C@H](NC(=O)[C@@H]3C[C@@H](O)CN3C(=O)[C@@H](NC(=O)C3(F)CC3)C(C)(C)C)c3ccc(-c4scnc4C)cc3)CC2)s1 [Example 166, (2S,4R)—N-((1S)-3-(4-(3-(5-(6-(3-cyanopyrrolo[1,2-b]pyridazin-7-yl)-4-(methylamino)pyridin-3-yl)-1,3,4-thiadiazol-2-yl)-3,8-diazabicyclo[3.2.1]octan-8-yl)piperidin-1-yl)-1-(4-(4-methylthiazol-5-yl)phenyl)-3-oxopropyl)-1-((S)-2-(1-fluorocyclopropane-1-carboxamido)-3,3-dimethylbutanoyl)-4-hydroxypyrrolidine-2-carboxamide]",9.00,114,67.7,,,
